Reference: patent US5079260A, “Method for treating inflammation and compounds and compositions suitable for use therein” (Nova Pharmaceutical Corporation, priority 1990, dated 1992)

How the values were obtained:
[1] = tested on: Ear Edema Caused by Tetradecanoylphorbolacetate; test: Inhibition of Ear Edema Caused by Tetradecanoylphorbolacetate (I), Table 1; assay type: in vivo, CF-1 Mice; settings: i.p.
Description: (§1) Such inflammatory agents typically include tetradecanoylphorbolacetate, arachidonic acid, xylene, capsaicin, oxazolone, carrageenan and the like. The reverse passive Arthus test offers another measure of the compound's utility in preventing an inflammatory response (Chang et al, Eur. J. Pharm. 69:155-164 (1981)). Test compounds are typically administered intraperitoneally or topically. For intraperitoneal administration, the test compound can be given in dimethyl sulfoxide or in 0.5% methylcellulose 30 minutes prior to administration of the irritant. For topical administration, the test compound can be dissolved in, for example, acetone, ethanol or dimethyl sulfoxide and applied about 15 minutes prior to application of the irritant. Results can be expressed as the percent decrease in swelling in the compound-treated animals as compared to control animals that receive only the irritant.
Inhibition of Ear Edema Caused by Tetradecanoylphorbolacetate (I)
CF-1 Mice, 25-30 g body weight, six animals per group, were used. Test compounds (compounds of Formula I where X is oxygen, R3, R4, A and B are hydrogen and Q is as indicated in Table 1) were administered intraperitoneally (100 mg/kg) or topically as follows. For intraperitoneal administration, the test compound was dissolved in dimethyl sulfoxide or 0.5% methylcellulose and 100 μl was injected 30 minutes prior to irritant (100 mg/kg, i.p.). For topical administration, the test compound was dissolved in either acetone, ethanol or dimethyl sulfoxide and 5 μl (100 μg) applied to the upper surface (1 cm^2) of the ear and an additional 5 μl (100 μg) applied to the lower surface (1 cm^2) of the ear fifteen minutes prior to application of the irritant. A solution of the irritant, tetradecanoylphorbolacetate, 200 μg/ml, was added to the surface of the ear, 5 μl added to the upper surface and 5 μl to the lower surface. After three hours, the thickness of the ear was measured to 0.01 mm by a micrometer with loose drag positioned at the lateral-most edge of the mid-point of the pinna. Data were calculated as the inhibition by the test compound of increased ear thickness compared to control animals receiving only the irritant.

[2] = tested on: Ear Edema Caused by Arachidonic Acid; test: Inhibition of Ear Edema Caused by Arachidonic Acid (I), Table 2; assay type: in vivo, CF-1 Mice; settings: i.p., 100 mg/kg; ear thickness at sixty minutes
Description: as §1
Inhibition of Ear Edema Caused by Arachidonic Acid (I)
CF-1 Mice, 25-30 g body weight, six animals per group, were used. Test compounds (compounds of Formula I where X is oxygen, R3, R4, A and B are hydrogen and Q is as indicated in Table 2) were administered intraperitoneally (100 mg/kg) as follows. For intraperitoneal administration, test compound was dissolved in DMSO or 0.5% methylcellulose and 100 μl was injected 30 minutes prior to i.p. administration of 100 mg/kg of arachidonic acid. A solution of the irritant, arachidonic acid, 100 mg/ml in ethanol, was added to the surface of the ear, 5 μl added to the upper surface and 5 μl to the lower surface. After sixty minutes, the thickness of the ear was measured to 0.01 mm by a micrometer with loose drag positioned at the lateral-most edge of the mid-point of the pinna. Data were calculated as the percent inhibition by the test compound of increased ear thickness compared to control animals receiving only the irritant.

[3] = tested on: Ear Edema Caused by Xylene; test: Inhibition of Ear Edema Caused by Xylene (I), Table 3; assay type: in vivo, CF-1 Mice; settings: 2 h; for % Inhibition Intraperitoneal: i.p., 100 mg/kg, 30 min before irritant
Description: as §1
Inhibition of Ear Edema Caused by Xylene (I)
CF-1 Mice, 25-30 g body weight, six animals per group, were used. Test compounds (compounds of Formula I where X is oxygen, R3, R4, A and B are hydrogen and Q is as indicated in Table 3) were administered intraperitoneally (100 mg/kg) or topically as follows. For intraperitoneal administration, the test compound was dissolved in DMSO or 0.5% methylcellulose and 100 μl was injected 30 minutes prior to irritant. For topical administration, test compound was dissolved in either acetone, ethanol or dimethyl sulfoxide and 5 μl (10 μg) applied to the upper surface (1 cm^2) of the ear and an additional 5 μl (10 μg) applied to the lower surface (1 cm^2) of the ear fifteen minutes prior to application of the irritant. The irritant, xylene, was added to the surface of the ear, 20 μl added to the upper surface and 20 μl to the lower surface. After two hours, the thickness of the ear was measured to 0.01 mm by a micrometer with loose drag positioned at the lateral-most edge of the mid-point of the pinna. Data were calculated as the inhibition by the test compound of increased ear thickness compared to that of control animals receiving only the irritant.

[4] = tested on: Ear Edema Caused by Oxazolone; test: Inhibition of Ear Edema Caused by Oxazolone (I), Table 5; assay type: in vivo, CF-1 Mice; settings: 24 h
Description: as §1
Inhibition of Ear Edema Caused by Oxazolone (I)
CF-1 Mice, 25-30 g body weight, six animals per group, were used. The mice were sensitized to the irritant two weeks prior to the test by dribbling 100 μl of a 3% solution of oxazolone in acetone onto the abdominal skin of the animal. Test compounds (compounds of Formula I where X is oxygen, R3, R4, A and B are hydrogen and Q is as indicated in Table 5) were administered intraperitoneally as follows. The test compound was dissolved in DMSO or 0.5% methylcellulose and 100 μl (100 mg/kg) was injected 30 minutes prior to irritant. The irritant, 3% oxazolone in acetone, was added to the surface of the ear, 5 μl added to the upper surface and 5 μl to the lower surface. After twenty four hours, the thickness of the ear was measured to 0.01 mm by a micrometer with loose drag positioned at the lateral-most edge of the mid-point of the pinna. Data were calculated as the inhibition by the test compound of increased ear thickness compared to control animals receiving only the irritant.

[5] = tested on: Reverse Passive Artus Reaction; test: Reverse Passive Artus Reaction (I), Table 6; assay type: in vivo, Male CD rats; settings: inhibition of blueing
Description: as §1
Reverse Passive Artus Reaction (I)
Male CD rats weighing between 200 and 250 g were used. Test compounds (compounds of Formula I where X is oxygen, R3, R4, A and B are hydrogen and Q is as indicated in Table 6) were dissolved in dimethyl sulfoxide and 200 μl of this solution (100 mg/kg) were injected intraperitoneally one hour before administration of the antigen. The animals were anesthetized inhalationally with isoflurane and then were injected through the penile vein with 1 ml of a solution of 2.5 mg of Evan's blue dye and 5.0 mg of human serum albumin in 1 ml of saline. This treatment was followed immediately by intracutaneous injections of 0.03 ml of anti-human albumin diluted to contain 3.65 mg of antibody at 3 sites along the midline back. Anesthesia was terminated and after three hours the animals were sacrificed. The skin was removed and the blue stained areas cut out. […] The tube contents were agitated and centrifuged, and the absorbance of the supernatant liquid was measured at 620 nm. The data were calculated as inhibition of blueing by test compound compared to control animals receiving only antigen and antibody.

[6] = tested on: Ear Edema Caused By Tetradecanoylphorbol Acetate; test: Inhibition of Ear Edema Caused by Tetradecanoylphorbol Acetate (II), Table 7; assay type: in vivo, CF-1 Mice; settings: i.p., 3 h
[7] = tested on: Ear Edema Caused by Arachidonic Acid; test: Inhibition of Ear Edema Caused by Arachidonic Acid (II), Table 8; assay type: in vivo, CF-1 mice; settings: i.p., sixty minutes
Method in brief: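 CF-1 mice (25-30 g, six/group) dosed intraperitoneally with compound in DMSO or 0.5% methylcellulose 30 min before topical arachidonic acid (100 mg/mL in ethanol, both ear surfaces).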

[8] = tested on: Ear Edema Caused by Xylene; test: Inhibition of Ear Edema Caused by Xylene (II), Table 9; assay type: in vivo, CF-1 mice; settings: i.p., 2 h
Method in brief: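 CF-1 mice (25-30 g, six per group) received compound i.p. in DMSO or 0.5% methylcellulose 30 min before xylene was applied to both ear surfaces. Ear thickness was measured by micrometer 2 h later. Values are percent inhibition of the increase in ear thickness versus irritant-only controls.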

[9] = tested on: Ear Edema Caused by Oxazolone; test: Inhibition of Ear Edema Caused by Oxazolone (II), Table 10; assay type: in vivo, CF-1 mice; settings: i.p., 24 h
[10] = tested on: Reverse Passive Artus Reaction; test: Reverse Passive Artus Reaction (II), Table 11; assay type: in vivo, Male CD rats; settings: inhibition of blueing, i.p.
Procedure: Reverse Passive Artus Reaction (II) Male CD rats weighing between 200 and 250 g were used. […] The animals were anesthetized inhalationally with isoflurane and then injected through the penile vein with 1 mL of a solution of 2.5 mg of Evan's blue dye and 5.0 mg of human serum albumin in 1 mL of saline. This treatment was followed immediately by intracutaneous injections of 0.03 mL of anti-human albumin diluted to contain 3.65 mg of antibody at 3 sites along the midline back. Anesthesia was terminated and after three hours, the animals were sacrificed. The skin was removed and the blue stained areas cut out. The skin patches were soaked overnight in stoppered tubes containing 1 mL of 1 N potassium hydroxide at 37° C. Then 9 mL of a mixture of five parts of a 0.6 N phosphoric acid and thirteen parts of acetone were added to the tubes. The tube contents were agitated and centrifuged, and the absorbance measured at 620 nm. The data were calculated as inhibition of blueing by test compound compared to control animals receiving only antigen and antibody.

[11] = tested on: Adjuvant Induced Fibrinogen; test: Adjuvant Arthritis: Inhibition of Adjuvant Induced Fibrinogen, Table 12; assay type: in vivo, Male Sprague Dawley rats; settings: i.p., 100 mg/kg, day 3
[12] = 100 mg/kg, 30 min before irritant, ear thickness at 3 h

SMILES | % Inhibition Intraperitoneal [1, 12] [%] | % Inhibition Intraperitoneal [2] [%] | % Inhibition Intraperitoneal [3] [%] | % Inhibition Intraperitoneal ([6]; 10 mg/kg) [%] | % Inhibition Intraperitoneal ([6]; 30 mg/kg) [%] | % Inhibition Intraperitoneal ([6]; 100 mg/kg) [%] | % Inhibition Intraperitoneal ([7]; 10 mg/kg) [%] | % Inhibition Intraperitoneal ([7]; 30 mg/kg) [%] | % Inhibition Intraperitoneal ([7]; 100 mg/kg) [%] | % Inhibition ([8]; 10 mg/kg) [%] | % Inhibition ([8]; 30 mg/kg) [%] | % Inhibition ([8]; 100 mg/kg) [%] | % Inhibition Intraperitoneal ([9]; 10 mg/kg) [%] | % Inhibition Intraperitoneal ([9]; 30 mg/kg) [%] | % Inhibition Intraperitoneal ([9]; 100 mg/kg) [%] | % Inhibition Intraperitoneal ([10]; 100 mg/kg) [%] | % Inhibition [11] [%] | further results
O=C(N[C@@H](Cc1ccccc1)C(=O)O)OCC1c2ccccc2-c2ccccc21 [L-Phenylalanine, N-[(9H-Fluoren-9-ylmethoxy)carbonyl]-L-phenylalanine] | 78 | 70 | 49 |  |  |  |  |  |  |  |  |  |  |  |  |  |  | % Inhibition, topical ([3]; topical, 10 μg upper + 10 μg lower ear surface, 15 min before irritant): 50%; % Inhibition Intraperitoneal ([4]; i.p., 100 mg/kg, 30 min before irritant, sensitized mice): 62%; % Inhibition Intraperitoneal ([5]; i.p., 100 mg/kg, one hour before antigen): 47%
CC(C)C[C@H](NC(=O)OCC1c2ccccc2-c2ccccc21)C(N)=O [NPC 15528, N-[(9H-Fluoren-9-ylmethoxy)carbonyl]-L-leucine Amide] |  |  |  | 61 | 64 | 75 | 31 | 32 | 35 | 20 | 27 | 39 | 41 | 25 | 46 | 0 | 0 | 
COc1cc2c(c(OC)c1OC)-c1ccc(OC)c(=O)cc1[C@@H](NC(C)=O)CC2 [Colchicine, reference compound] |  |  |  |  |  |  |  |  |  |  |  |  |  |  |  |  |  | % Inhibition Intraperitoneal ([5]; Reference Standard 1 mg/kg): 64%
CN1C(C(=O)Nc2ccccn2)=C(O)c2ccccc2S1(=O)=O [Piroxicam, reference compound] | 40 | 86 | 74 | 7 | 14 | 40 | 56 | 77 | 86 | 53 | 49 | 74 |  |  |  |  |  | 
CC(C)C[C@H](NC(=O)OCC1c2ccccc2-c2cc3ccccc3cc21)C(=O)O (stereo partly drawn) [NPC 15510, N-[9H-(2,3-Benzofluoren-9-ylmethoxy)carbonyl]-L-leucine] |  |  |  | 48 | 70 | 70 | -24 | 69 | 67 | 40 | 40 | 49 | -7 | 3 | 101 | 50 | 35 | 
C[C@@H]1C[C@H]2[C@@H]3CCC4=CC(=O)C=C[C@]4(C)[C@@]3(F)[C@@H](O)C[C@]2(C)[C@@]1(O)C(=O)CO [Dexamethasone, reference compound] |  |  |  | 50 |  |  | 12 |  |  | 34 |  |  |  |  |  |  |  | % Inhibition Intraperitoneal ([1]; Reference Standard, 10 mg/kg, 3 h): 50%; % Inhibition Intraperitoneal ([4]; Reference Standard at 10 mg/kg): 48%; % Inhibition Intraperitoneal ([10]; 10 mg/kg): 4%
